Activity calls are given as the source filed them. The calls are words filed in the database; no cut-off is given here.

The test system of one series is Mus musculus. Kind of series: Anticonvulsant activity in albino Mus musculus (mouse) assessed as protection against maximal electroshock-induced seizures at 300 mg/kg, ip after 0.5 hr relative to control. The format is functional, organism-based. Details: dose 300 mg/kg.
Conditions: not given
For the compound `NC(=S)N1N=C(c2ccccn2)CC1c1cccc2ccccc12` (configuration not stated), the outcome was Active.

Take `CCNC(=S)N1N=C(c2ccccn2)CC1c1cccc2ccccc12` (configuration not stated): the result was Active.

For `CCNC(=S)N1N=C(c2ccccn2)CC1c1ccc(Cl)cc1` (configuration not stated), the outcome was Active.

The next series concerns Mus musculus. Kind of series: Anticonvulsant activity in albino Mus musculus (mouse) assessed as protection against maximal electroshock-induced seizures at 30 mg/kg, ip after 4 hr relative to control. The format is functional, organism-based. Further details: dose 30 mg/kg.
Conditions: not given
In the case of `NC(=S)N1N=C(c2ccccn2)CC1c1cccc2ccccc12` (configuration not stated), the outcome was inactive.

With `CCNC(=S)N1N=C(c2ccccn2)CC1c1cccc2ccccc12` (configuration not stated), the outcome was inactive.

In the case of `CCNC(=S)N1N=C(c2ccccn2)CC1c1ccc(Cl)cc1` (configuration not stated), the result was inactive.

A further series concerns Mus musculus. The series can be described thus: Anticonvulsant activity in albino Mus musculus (mouse) assessed as protection against subcutaneous pentylenetetrazol-induced seizures at 300 mg/kg, ip after 0.5 hr relative to control. Format: functional, organism-based. Details: dose 300 mg/kg.
Conditions: not given
For `NC(=S)N1N=C(c2ccccn2)CC1c1cccc2ccccc12` (configuration not stated), the outcome was Active.

For `CCNC(=S)N1N=C(c2ccccn2)CC1c1cccc2ccccc12` (configuration not stated), the result was Active.

For the compound `CCNC(=S)N1N=C(c2ccccn2)CC1c1ccc(Cl)cc1` (configuration not stated), the outcome was Active.

In a further series the test system is Mus musculus. Kind of series: Neurotoxicity in albino Mus musculus (mouse) assessed as motor impairment at 100 mg/kg, ip after 4 hr relative to control. Further details: dose 100 mg/kg, route intraperitoneal. The note with it: in vivo. The format is toxicity, organism-based.
In the case of `NC(=S)N1N=C(c2ccccn2)CC1c1cccc2ccccc12` (configuration not stated), the Activity result was “Non-toxic”.

For `CCNC(=S)N1N=C(c2ccccn2)CC1c1cccc2ccccc12` (configuration not stated), the Activity entry was “Non-toxic”.

For the compound `CCNC(=S)N1N=C(c2ccccn2)CC1c1ccc(Cl)cc1` (configuration not stated), the Activity result is listed as “Non-toxic”.

The test system of another series is Mus musculus. Kind of series: Anticonvulsant activity in albino Mus musculus (mouse) assessed as protection against subcutaneous pentylenetetrazol-induced seizures at 100 mg/kg, ip after 0.5 hr relative to control. Format: functional, organism-based. Details: dose 100 mg/kg.
Conditions: not given
With `NC(=S)N1N=C(c2ccccn2)CC1c1cccc2ccccc12` (configuration not stated), the outcome was Active.

Regarding `CCNC(=S)N1N=C(c2ccccn2)CC1c1cccc2ccccc12` (configuration not stated), the result was Active.

Take `CCNC(=S)N1N=C(c2ccccn2)CC1c1ccc(Cl)cc1` (configuration not stated): the outcome was inactive.

The next series relates to Mus musculus. The series can be described thus: Anticonvulsant activity in albino Mus musculus (mouse) assessed as protection against maximal electroshock-induced seizures at 300 mg/kg, ip after 4 hr relative to control. The format is functional, organism-based. Details: dose 300 mg/kg.
Conditions: not given
In the case of `NC(=S)N1N=C(c2ccccn2)CC1c1cccc2ccccc12` (configuration not stated), the result was Active.

Take `CCNC(=S)N1N=C(c2ccccn2)CC1c1cccc2ccccc12` (configuration not stated): the outcome was Active.

Consider `CCNC(=S)N1N=C(c2ccccn2)CC1c1ccc(Cl)cc1` (configuration not stated), for which the outcome was inactive.

For the next series, the system named is Mus musculus. Kind of series: Anticonvulsant activity in albino Mus musculus (mouse) assessed as protection against maximal electroshock-induced seizures at 100 mg/kg, ip after 4 hr relative to control. Further details: dose 100 mg/kg.
Conditions: not given
Format: functional, organism-based.
For the compound `NC(=S)N1N=C(c2ccccn2)CC1c1cccc2ccccc12` (configuration not stated), the outcome was Active.

On to `CCNC(=S)N1N=C(c2ccccn2)CC1c1cccc2ccccc12` (configuration not stated), for which the outcome was inactive.

Regarding `CCNC(=S)N1N=C(c2ccccn2)CC1c1ccc(Cl)cc1` (configuration not stated), the outcome was inactive.

A further series concerns Mus musculus. The series can be described thus: Neurotoxicity in albino Mus musculus (mouse) assessed as motor impairment at 30 mg/kg, ip after 0.5 hr relative to control. Format: toxicity, organism-based. As to conditions: in vivo. Details: dose 30 mg/kg, route intraperitoneal.
With `NC(=S)N1N=C(c2ccccn2)CC1c1cccc2ccccc12` (configuration not stated), the Activity entry was “Non-toxic”.

On to `CCNC(=S)N1N=C(c2ccccn2)CC1c1cccc2ccccc12` (configuration not stated), for which the Activity entry is “Non-toxic”.

Turning to `CCNC(=S)N1N=C(c2ccccn2)CC1c1ccc(Cl)cc1` (configuration not stated), the Activity result is “Non-toxic”.

The next series deals with Mus musculus. The series can be described thus: Neurotoxicity in albino Mus musculus (mouse) assessed as motor impairment at 300 mg/kg, ip after 0.5 hr relative to control. Format: toxicity, organism-based. Details: dose 300 mg/kg, route intraperitoneal. The note with it: in vivo.
Regarding `NC(=S)N1N=C(c2ccccn2)CC1c1cccc2ccccc12` (configuration not stated), the Activity result is on record as “Non-toxic”.

Take `CCNC(=S)N1N=C(c2ccccn2)CC1c1cccc2ccccc12` (configuration not stated): the Activity entry is “Non-toxic”.

Consider `CCNC(=S)N1N=C(c2ccccn2)CC1c1ccc(Cl)cc1` (configuration not stated), for which the Activity result was “Non-toxic”.

For another series, the system named is Mus musculus. The series can be described thus: Anticonvulsant activity in albino Mus musculus (mouse) assessed as protection against maximal electroshock-induced seizures at 30 mg/kg, ip after 0.5 hr relative to control. The format is functional, organism-based. Further details: dose 30 mg/kg.
Conditions: not given
For `NC(=S)N1N=C(c2ccccn2)CC1c1cccc2ccccc12` (configuration not stated), the outcome was Active.

On to `CCNC(=S)N1N=C(c2ccccn2)CC1c1cccc2ccccc12` (configuration not stated), for which the result was inactive.

For the compound `CCNC(=S)N1N=C(c2ccccn2)CC1c1ccc(Cl)cc1` (configuration not stated), the result was inactive.

For another series, the system named is Mus musculus. The series can be described thus: Neurotoxicity in albino Mus musculus (mouse) assessed as motor impairment at 300 mg/kg, ip after 4 hr relative to control. The format is toxicity, organism-based. Details: dose 300 mg/kg, route intraperitoneal. The note with it: in vivo.
`NC(=S)N1N=C(c2ccccn2)CC1c1cccc2ccccc12` (configuration not stated): the Activity entry is “Non-toxic”.

On to `CCNC(=S)N1N=C(c2ccccn2)CC1c1cccc2ccccc12` (configuration not stated), for which the Activity result is “Non-toxic”.

For the compound `CCNC(=S)N1N=C(c2ccccn2)CC1c1ccc(Cl)cc1` (configuration not stated), the Activity result is on record as “Non-toxic”.

For another series, the system named is Mus musculus. The series can be described thus: Anticonvulsant activity in albino Mus musculus (mouse) assessed as protection against maximal electroshock-induced seizures at 100 mg/kg, ip after 0.5 hr relative to control. Format: functional, organism-based. Further details: dose 100 mg/kg.
Conditions: not given
As for `NC(=S)N1N=C(c2ccccn2)CC1c1cccc2ccccc12` (configuration not stated), the outcome was Active.

With `CCNC(=S)N1N=C(c2ccccn2)CC1c1cccc2ccccc12` (configuration not stated), the outcome was Active.

As for `CCNC(=S)N1N=C(c2ccccn2)CC1c1ccc(Cl)cc1` (configuration not stated), the result was Active.

Test system in another series: not listed separately
The series can be described thus: Partition coefficient, log P of the compound. As to conditions: octanol/water. Format: physicochemical.
On to `NC(=S)N1N=C(c2ccccn2)CC1c1cccc2ccccc12` (configuration not stated), for which the logP is 4.51.

In the case of `CCNC(=S)N1N=C(c2ccccn2)CC1c1cccc2ccccc12` (configuration not stated), the logP came out at 4.7.

For the compound `CCNC(=S)N1N=C(c2ccccn2)CC1c1ccc(Cl)cc1` (configuration not stated), the logP was 3.64.

The next series concerns Mus musculus. Kind of series: Neurotoxicity in albino Mus musculus (mouse) assessed as motor impairment at 30 mg/kg, ip after 4 hr relative to control. Format: toxicity, organism-based. Details: dose 30 mg/kg, route intraperitoneal. As to conditions: in vivo.
Consider `NC(=S)N1N=C(c2ccccn2)CC1c1cccc2ccccc12` (configuration not stated), for which the Activity result is on record as “Non-toxic”.

`CCNC(=S)N1N=C(c2ccccn2)CC1c1cccc2ccccc12` (configuration not stated): the Activity result is “Non-toxic”.

For `CCNC(=S)N1N=C(c2ccccn2)CC1c1ccc(Cl)cc1` (configuration not stated), the Activity result is “Non-toxic”.

A further series concerns Mus musculus. Kind of series: Anticonvulsant activity in albino Mus musculus (mouse) assessed as protection against subcutaneous pentylenetetrazol-induced seizures at 300 mg/kg, ip after 4 hr relative to control. Details: dose 300 mg/kg. The format is functional, organism-based.
Conditions: not given
Consider `NC(=S)N1N=C(c2ccccn2)CC1c1cccc2ccccc12` (configuration not stated), for which the result was Active.

On to `CCNC(=S)N1N=C(c2ccccn2)CC1c1cccc2ccccc12` (configuration not stated), for which the result was Active.

Consider `CCNC(=S)N1N=C(c2ccccn2)CC1c1ccc(Cl)cc1` (configuration not stated), for which the result was inactive.

In another series the test system is Mus musculus. The series can be described thus: Anticonvulsant activity in albino Mus musculus (mouse) assessed as protection against subcutaneous pentylenetetrazol-induced seizures at 30 mg/kg, ip after 0.5 hr relative to control. The format is functional, organism-based. Further details: dose 30 mg/kg.
Conditions: not given
For `NC(=S)N1N=C(c2ccccn2)CC1c1cccc2ccccc12` (configuration not stated), the outcome was inactive.

In the case of `CCNC(=S)N1N=C(c2ccccn2)CC1c1cccc2ccccc12` (configuration not stated), the result was inactive.

Consider `CCNC(=S)N1N=C(c2ccccn2)CC1c1ccc(Cl)cc1` (configuration not stated), for which the result was inactive.

In another series the test system is Mus musculus. The series can be described thus: Anticonvulsant activity in albino Mus musculus (mouse) assessed as protection against subcutaneous pentylenetetrazol-induced seizures at 100 mg/kg, ip after 4 hr relative to control.
Conditions: not given
The format is functional, organism-based. Details: dose 100 mg/kg.
In the case of `NC(=S)N1N=C(c2ccccn2)CC1c1cccc2ccccc12` (configuration not stated), the result was inactive.

`CCNC(=S)N1N=C(c2ccccn2)CC1c1cccc2ccccc12` (configuration not stated): the result was inactive.

`CCNC(=S)N1N=C(c2ccccn2)CC1c1ccc(Cl)cc1` (configuration not stated): the outcome was inactive.

The next series has as its system Mus musculus. The series can be described thus: Neurotoxicity in albino Mus musculus (mouse) assessed as motor impairment at 100 mg/kg, ip after 0.5 hr relative to control. As to conditions: in vivo. Format: toxicity, organism-based. Further details: dose 100 mg/kg, route intraperitoneal.
Take `NC(=S)N1N=C(c2ccccn2)CC1c1cccc2ccccc12` (configuration not stated): the Activity result was “Non-toxic”.

On to `CCNC(=S)N1N=C(c2ccccn2)CC1c1cccc2ccccc12` (configuration not stated), for which the Activity result is “Non-toxic”.

With `CCNC(=S)N1N=C(c2ccccn2)CC1c1ccc(Cl)cc1` (configuration not stated), the Activity result is recorded as “Non-toxic”.

The next series has as its system Mus musculus. Kind of series: Anticonvulsant activity in albino Mus musculus (mouse) assessed as protection against subcutaneous pentylenetetrazol-induced seizures at 30 mg/kg, ip after 4 hr relative to control. The format is functional, organism-based. Further details: dose 30 mg/kg.
Conditions: not given
As to `NC(=S)N1N=C(c2ccccn2)CC1c1cccc2ccccc12` (configuration not stated), the result was inactive.

Consider `CCNC(=S)N1N=C(c2ccccn2)CC1c1cccc2ccccc12` (configuration not stated), for which the result was inactive.

On to `CCNC(=S)N1N=C(c2ccccn2)CC1c1ccc(Cl)cc1` (configuration not stated), for which the result was inactive.

(Values after ChEMBL document CHEMBL3045568, “Novel 2-pyrazoline derivatives as potential anticonvulsant agents” (Med Chem Res, 2013).)
